This note sets out measurements from patent publication US7297700B2, “Bicycloheteroaryl compounds as P2X7 modulators and uses thereof” (Renovis, Inc., priority 2005, dated 2007).

Structures are written as SMILES.

The term inhibition denotes the drop in the measured response relative to a control, in per cent.

In the first experiment the test system is IL-1β release from THP-1 cells. Kind of experiment: IL-1β Release Assay (Alternate Method), THP-1 cells. In kind it is cell-based, human. Particulars: Homo sapiens; at 0.3 μM; THP-1 cells; read-out: IL-1β % inhibition. In outline: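 IL-1β release, measured by ELISA, follows 45 min BzATP (250 uM final) stimulation of THP-1 cells given 30 min compound pretreatment. Cells were first primed 16 h with LPS and IFN-γ (100 ng/mL each), then 2 h with fresh LPS; inhibition expressed in percent after background correction.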
Consider `O=C(c1ccccc1)N1CCc2c(ncnc2NC(=O)C23CC4CC(CC(C4)C2)C3)C1` [Compound 394], for which the inhibition at 0.3 µM lay within 25 to 50%.

The same experiment, now with this note: at 0.3 μM; THP-1 cells.
Regarding `CC12CC3CC(C)(C1)CC(CC(=O)Nc1ncnc4c1CCN(C(=O)c1c(F)cccc1Cl)C4)(C3)C2` [Compound 389], the IL-1β % inhibition entry was “++ (compound exhibited 25-50% inhibition at 0.3 μM)”.
Still for that read-out and setting: in the case of `CC12CC3CC(C)(C1)CC(CC(=O)Nc1ncnc4c1CCN(C(=O)c1cc(F)ccc1F)C4)(C3)C2` [Compound 390] it was “+ (compound exhibited 0-25% inhibition at 0.3 μM)”; in that of `CC12CC3CC(C)(C1)CC(CC(=O)Nc1ncnc4c1CCN(C(=O)c1cccc(Cl)c1Cl)C4)(C3)C2` [Compound 391], “+ (compound exhibited 0-25% inhibition at 0.3 μM)”; in that of `O=C(Cc1ccccc1)N1CCc2c(ncnc2NC(=O)C23CC4CC(CC(C4)C2)C3)C1` [Compound 398], “+++ (compound exhibited 50-75% inhibition at 0.3 μM)”.
Still for that read-out and setting: in the case of `O=C(c1ccc(Cl)cc1)N1CCc2c(ncnc2NC(=O)C23CC4CC(CC(C4)C2)C3)C1` [Compound 399] it was “+ (compound exhibited 0-25% inhibition at 0.3 μM)”; in that of `O=C(c1cccc(F)c1)N1CCc2c(ncnc2NC(=O)C23CC4CC(CC(C4)C2)C3)C1` [Compound 400], “+ (compound exhibited 0-25% inhibition at 0.3 μM)”.
The same measure, in the same setting: in the case of `O=C(c1ccc(OC(F)(F)F)cc1)N1CCc2c(ncnc2NC(=O)C23CC4CC(CC(C4)C2)C3)C1` [Compound 401] it was “+ (compound exhibited 0-25% inhibition at 0.3 μM)”; in that of `CCc1ccc(C(=O)N2CCc3c(ncnc3NC(=O)C34CC5CC(CC(C5)C3)C4)C2)cc1` [Compound 402], “+ (compound exhibited 0-25% inhibition at 0.3 μM)”; in that of `Cc1cccc(C(=O)N2CCc3c(ncnc3NC(=O)C34CC5CC(CC(C5)C3)C4)C2)c1` [Compound 403], “++ (compound exhibited 25-50% inhibition at 0.3 μM)”.
Take `O=C(c1ccc(F)c(F)c1)N1CCc2c(ncnc2NC(=O)C23CC4CC(CC(C4)C2)C3)C1` [Compound 405]: the IL-1β % inhibition result is listed as “++ (compound exhibited 25-50% inhibition at 0.3 μM)”.

Still in this experiment, the particulars now being: at 0.3 μM; THP-1 cells, BzATP-stimulated.
For `O=C(c1cccc(C(F)(F)F)c1)N1CCc2c(ncnc2NC(=O)C23CC4CC(CC(C4)C2)C3)C1` [Compound 406], the IL-1β % inhibition entry is “++ (compound exhibited 25-50% inhibition at 0.3 μM)”.
Still for that read-out and setting: the same measure for `COc1ccc(C(=O)N2CCc3c(ncnc3NC(=O)C34CC5CC(CC(C5)C3)C4)C2)cc1` [Compound 407]: “+ (compound exhibited 0-25% inhibition at 0.3 μM)”; for `O=C(C(c1ccccc1)c1ccccc1)N1CCc2c(ncnc2NC(=O)C23CC4CC(CC(C4)C2)C3)C1` [Compound 409]: “+ (compound exhibited 0-25% inhibition at 0.3 μM)”.
On the same count and under the same terms, the same measure for `O=C(Cc1ccc(F)cc1)N1CCc2c(ncnc2NC(=O)C23CC4CC(CC(C4)C2)C3)C1` [Compound 413]: “++ (compound exhibited 25-50% inhibition at 0.3 μM)”; for `N#Cc1cccc(C(=O)N2CCc3c(ncnc3NC(=O)C34CC5CC(CC(C5)C3)C4)C2)c1` [Compound 414]: “++ (compound exhibited 25-50% inhibition at 0.3 μM)”.
The same measure, in the same setting: the same measure for `O=C(c1ccc(C(F)(F)F)cc1)N1CCc2c(ncnc2NC(=O)C23CC4CC(CC(C4)C2)C3)C1` [Compound 415]: “+ (compound exhibited 0-25% inhibition at 0.3 μM)”; for `O=C(c1ccc(Cl)c(Cl)c1)N1CCc2c(ncnc2NC(=O)C23CC4CC(CC(C4)C2)C3)C1` [Compound 417]: “+ (compound exhibited 0-25% inhibition at 0.3 μM)”; for `COc1cc(OC)cc(C(=O)N2CCc3c(ncnc3NC(=O)C34CC5CC(CC(C5)C3)C4)C2)c1` [Compound 418]: “++ (compound exhibited 25-50% inhibition at 0.3 μM)”.
For the compound `O=C(c1c(F)cccc1F)N1CCc2c(ncnc2NC(=O)C23CC4CC(CC(C4)C2)C3)C1` [Compound 419], the IL-1β % inhibition result was “+ (compound exhibited 0-25% inhibition at 0.3 μM)”.
The same measure, in the same setting: the same measure for `O=C(COc1ccccc1)N1CCc2c(ncnc2NC(=O)C23CC4CC(CC(C4)C2)C3)C1` [Compound 421]: “+ (compound exhibited 0-25% inhibition at 0.3 μM)”; for `COc1cccc(C(=O)N2CCc3c(ncnc3NC(=O)C34CC5CC(CC(C5)C3)C4)C2)c1` [Compound 422]: “++ (compound exhibited 25-50% inhibition at 0.3 μM)”; for `O=C(c1ccc(F)cc1)N1CCc2c(ncnc2NC(=O)C23CC4CC(CC(C4)C2)C3)C1` [Compound 423]: “++ (compound exhibited 25-50% inhibition at 0.3 μM)”.
Still for that read-out and setting: in the case of `CC(C)(C)C(=O)N1CCc2c(ncnc2NC(=O)C23CC4CC(CC(C4)C2)C3)C1` [Compound 424] it was “+ (compound exhibited 0-25% inhibition at 0.3 μM)”; in that of `O=C(c1cccc(Cl)c1)N1CCc2c(ncnc2NC(=O)C23CC4CC(CC(C4)C2)C3)C1` [Compound 425], “+ (compound exhibited 0-25% inhibition at 0.3 μM)”.
With `O=C(COCc1ccccc1)N1CCc2c(ncnc2NC(=O)C23CC4CC(CC(C4)C2)C3)C1` [Compound 428], the IL-1β % inhibition result is recorded as “+ (compound exhibited 0-25% inhibition at 0.3 μM)”.
With `O=C(c1ccc(Cl)cc1Cl)N1CCc2c(ncnc2NC(=O)C23CC4CC(CC(C4)C2)C3)C1` [Compound 430], the IL-1β % inhibition result is listed as “++ (compound exhibited 25-50% inhibition at 0.3 μM)”.
`COc1cccc(CC(=O)N2CCc3c(ncnc3NC(=O)C34CC5CC(CC(C5)C3)C4)C2)c1` [Compound 433]: the IL-1β % inhibition entry is “++ (compound exhibited 25-50% inhibition at 0.3 μM)”.
Still for that read-out and setting: in the case of `O=C(COc1ccc(Cl)cc1)N1CCc2c(ncnc2NC(=O)C23CC4CC(CC(C4)C2)C3)C1` [Compound 436] it was “++ (compound exhibited 25-50% inhibition at 0.3 μM)”; in that of `O=C(Cc1ccc(Cl)cc1)N1CCc2c(ncnc2NC(=O)C23CC4CC(CC(C4)C2)C3)C1` [Compound 437], “+ (compound exhibited 0-25% inhibition at 0.3 μM)”; in that of `O=C(c1ccc(C(F)(F)F)cc1F)N1CCc2c(ncnc2NC(=O)C23CC4CC(CC(C4)C2)C3)C1` [Compound 438], “++ (compound exhibited 25-50% inhibition at 0.3 μM)”.
Still for that read-out and setting: in the case of `O=C(c1cc(F)cc(C(F)(F)F)c1)N1CCc2c(ncnc2NC(=O)C23CC4CC(CC(C4)C2)C3)C1` [Compound 439] it was “++ (compound exhibited 25-50% inhibition at 0.3 μM)”; in that of `O=C(c1ccccc1C(F)(F)F)N1CCc2c(ncnc2NC(=O)C23CC4CC(CC(C4)C2)C3)C1` [Compound 442], “++ (compound exhibited 25-50% inhibition at 0.3 μM)”; in that of `O=C(c1cc(C(F)(F)F)ccc1Cl)N1CCc2c(ncnc2NC(=O)C23CC4CC(CC(C4)C2)C3)C1` [Compound 443], “++ (compound exhibited 25-50% inhibition at 0.3 μM)”.
Same read-out and setting: in the case of `O=C(c1c(F)cccc1Cl)N1CCc2c(ncnc2NC(=O)C23CC4CC(CC(C4)C2)C3)C1` [Compound 444] it was “+ (compound exhibited 0-25% inhibition at 0.3 μM)”; in that of `O=C(c1cccnc1Oc1ccccc1)N1CCc2c(ncnc2NC(=O)C23CC4CC(CC(C4)C2)C3)C1` [Compound 446], “++ (compound exhibited 25-50% inhibition at 0.3 μM)”.
Regarding `O=C(c1ccc(F)cc1F)N1CCc2c(ncnc2NC(=O)C23CC4CC(CC(C4)C2)C3)C1` [Compound 449], the IL-1β % inhibition result is on record as “++ (compound exhibited 25-50% inhibition at 0.3 μM)”.
As to `Cc1ccccc1C(=O)N1CCc2c(ncnc2NC(=O)C23CC4CC(CC(C4)C2)C3)C1` [Compound 450], the IL-1β % inhibition result is recorded as “+ (compound exhibited 0-25% inhibition at 0.3 μM)”.
Still for that read-out and setting: the same measure for `O=C(c1cc(F)ccc1F)N1CCc2c(ncnc2NC(=O)C23CC4CC(CC(C4)C2)C3)C1` [Compound 451]: “+ (compound exhibited 0-25% inhibition at 0.3 μM)”; for `O=C(c1ccccc1F)N1CCc2c(ncnc2NC(=O)C23CC4CC(CC(C4)C2)C3)C1` [Compound 452]: “++ (compound exhibited 25-50% inhibition at 0.3 μM)”; for `O=C(c1ccc(Cl)nc1)N1CCc2c(ncnc2NC(=O)C23CC4CC(CC(C4)C2)C3)C1` [Compound 453]: “+ (compound exhibited 0-25% inhibition at 0.3 μM)”.
On the same count and under the same terms, in the case of `O=C(c1cccc(Cl)c1Cl)N1CCc2c(ncnc2NC(=O)C23CC4CC(CC(C4)C2)C3)C1` [Compound 454] it was “++ (compound exhibited 25-50% inhibition at 0.3 μM)”.
In the case of `O=C(c1ccc2ccccc2c1)N1CCc2c(ncnc2NC(=O)C23CC4CC(CC(C4)C2)C3)C1` [Compound 460], the IL-1β % inhibition entry was “+ (compound exhibited 0-25% inhibition at 0.3 μM)”.
Same read-out and setting: the same measure for `Cc1ccc(C(=O)N2CCc3c(ncnc3NC(=O)C34CC5CC(CC(C5)C3)C4)C2)cc1` [Compound 461]: “+ (compound exhibited 0-25% inhibition at 0.3 μM)”; for `Cc1cc(C(=O)N2CCc3c(ncnc3NC(=O)C34CC5CC(CC(C5)C3)C4)C2)c(C)o1` [Compound 463]: “++ (compound exhibited 25-50% inhibition at 0.3 μM)”.
On the same count and under the same terms, in the case of `O=C(c1ccccc1Cl)N1CCc2c(ncnc2NC(=O)C23CC4CC(CC(C4)C2)C3)C1` [Compound 464] it was “++ (compound exhibited 25-50% inhibition at 0.3 μM)”; in that of `O=C(c1ccno1)N1CCc2c(ncnc2NC(=O)C23CC4CC(CC(C4)C2)C3)C1` [Compound 466], “+ (compound exhibited 0-25% inhibition at 0.3 μM)”.
On the same count and under the same terms, in the case of `O=C(Cc1ccccc1Br)N1CCc2c(ncnc2NC(=O)C23CC4CC(CC(C4)C2)C3)C1` [Compound 470] it was “+ (compound exhibited 0-25% inhibition at 0.3 μM)”; in that of `O=C(c1ccc2ccccc2n1)N1CCc2c(ncnc2NC(=O)C23CC4CC(CC(C4)C2)C3)C1` [Compound 471], “++ (compound exhibited 25-50% inhibition at 0.3 μM)”; in that of `COc1ccc(C(=O)N2CCc3c(ncnc3NC(=O)C34CC5CC(CC(C5)C3)C4)C2)cc1F` [Compound 475], “++ (compound exhibited 25-50% inhibition at 0.3 μM)”.
